Data reported in US11371097B2, “Articles for diagnosis of liver fibrosis” (THE GOVERNMENT OF THE UNITED STATES, as represented by THE …, priority 2015, dated 2022).
Where “and” joins values, the source holds several entries; their conditions need not be identical. Equal values may be shown once. Read-outs that look alike come from different tables or passages of the source.

Experiments:
liver [1] = conditions: cited from earlier work
liver [2] = assay type: in vivo, Male Sprague-Dawley rats
Experimental: All chemical compounds were diluted in corn oil (CAS No. 8001-30-7) (MP Biomedicals, LLC (Solon, Ohio)). The dose volume was 5 mL/kg. Doses were selected based on doses published in the DrugMatrix database, the National Toxicology Program reports, and ATSDR reports.
(§1) In vivo rat experiments were performed at Integrated Laboratory Systems (ILS, Research Triangle Park, NC). ILS's Institutional Animal Care and Use Committee approved all experimental procedures. Research was conducted in compliance with the Animal Welfare Act, and other Federal statutes and regulations relating to animals and experiments involving animals and adheres to principles stated in the “Guide for Care and Use of Laboratory Animals” as prepared by the Committee on Care and Use of Laboratory Animals of the Institute of Laboratory Animal Resources, National Research Council in facilities that are fully accredited by the Association for Assessment and Accreditation of Laboratory Animal Care, International. Male Sprague-Dawley rats (CD IGS [CRL:CD (SD)]) were purchased from Charles River Laboratories (Stone Ridge, N.Y.). Rats weighing 215-245 g (8 weeks old) were used. Briefly, rats were housed two per cage with a rat tunnel enrichment device (Bio-Serve, Frenchtown, N.J.). Rats were fed a Purina Rodent Diet No. 5002 (Ralston Purina Co., St. Louis, Mo.), supplied ad libitum. Animals received reverse osmosis-treated tap water (City of Durham, N.C.) ad libitum, which was changed at least once weekly. Controls in the animal rooms were set to maintain temperatures between 20-In vivo rat experiments were performed at Integrated Laboratory Systems (ILS, Research Triangle Park, NC). ILS's Institutional Animal Care and Use Committee approved all experimental procedures. Research was conducted in compliance with the Animal Welfare Act, and other Federal statutes and regulations relating to animals and experiments involving animals and adheres to principles stated in the “Guide for Care and Use of Laboratory Animals” as prepared by the Committee on Care and Use of Laboratory Animals of the Institute of Laboratory Animal Resources, National Research Council in facilities that are fully accredited by the Association for Assessment and Accreditation of Laboratory Animal Care, International. Male Sprague-Dawley rats (CD IGS [CRL:CD (SD)]) were purchased from Charles River Laboratories (Stone Ridge, N.Y.). Rats weighing 215-245 g (8 weeks old) were used. Briefly, rats were housed two per cage with a rat tunnel enrichment device (Bio-Serve, Frenchtown, N.J.). Rats were fed a Purina Rodent Diet No. 5002 (Ralston Purina Co., St. Louis, Mo.), supplied ad libitum. Animals received reverse osmosis-treated tap water (City of Durham, N.C.) ad libitum, which was changed at least once weekly. Controls in the animal rooms were set to maintain temperatures between 20-25° C. with a relative humidity of 30-70% and a 12-hour light/12-hour dark cycle, lights on at 6:00 AM. Clinically healthy animals were assigned to dose groups using a procedure that stratifies animals across groups by body weight such that mean body weight of each group was not statistically different from any other group using analysis of variance (Statistical Analysis System version 9.2, SAS Institute, Cary, N.C.). Animals were dosed by oral gavage for five consecutive days (+10 minutes from the previous day's dose administration time). Volume was based upon daily body weight.
Animals were observed cageside one hour following daily dose administration, then 1-2 times per day during dosing regimens. Body weights were measured daily prior to dose administration, and prior to euthanasia. Twenty-four hours after the final dose administration, animals were anesthetized with isoflurane then euthanized by exsanguination followed by decapitation. Livers were harvested at necropsy and weighed to within 0.1 g. One half of the left lobe of the liver was fixed in 10% formalin. […]

[3] = assay type: in vivo, Male Sprague-Dawley rats
Experimental: as §1
Animals were observed cageside one hour following daily dose administration, then 1-2 times per day during dosing regimens. Body weights were measured daily prior to dose administration, and prior to euthanasia. Twenty-four hours after the final dose administration, animals were anesthetized with isoflurane then euthanized by exsanguination followed by decapitation. Livers were harvested at necropsy and weighed to within 0.1 g. One half of the left lobe of the liver was fixed in 10% formalin. The remaining half of the left lobe of the liver was flash frozen in liquid nitrogen, then stored below −70° C. Liver specimens were frozen in less than three minutes from time of death.

Tgfb1 = experiment: qPCR of liver RNA: Tgfb1; assay type: in vivo, Male Sprague-Dawley rats; conditions: liver, across dose groups, vs control
Experimental: (§2) Working on dry ice, a portion (−10 mg) of flash-frozen liver was cut from each sample and transferred to a clean, labeled tube. Total RNA was then isolated using Qiagen's miRNeasy 96 kit (Qiagen, Valencia, Calif.) following manufacturer's instructions with a final elution volume of −150 μL (2×75 μL). The quality and quantity of RNA samples were evaluated with a 2100 Bioanalyzer (Agilent Technologies, Santa Clara, Calif.), using the Agilent RNA 6000 Nano Reagents and a multiwell NanoDrop 8000 spectrophotometer (Thermo Fisher Scientific, Waltham, Mass.).
(§3) Using 1 μg RNA input, cDNA was generated using a QuantiTect Reverse Transcription kit (Qiagen, Valencia, Calif.) following manufacturer's instructions. Applied Biosystems SYBR Green Master Mix was used in a 20 μL qPCR reaction with 2 μL of cDNA template and a 2.tM final concentration of each primer. A total of five genes were targeted (Gapdh, Actb, Timp1, Tgfbl, and Psma5), two of which served as the endogenous controls (Gapdh and Actb). An Applied Biosystems 7500 Real-Time PCR System (Applied Biosystems, Foster City, Calif.) was used for thermal cycling and fluorescence detection using the default settings for Quantitation-Comparative CT with SYBR® . . . Green Reagents which uses the following scheme: 95° C. for 10 minutes followed by 40 cycles of: 95° C. for 15 seconds, 60° C. for 1 minute, and a fluorescence signal read. Al! primers were obtained from Integrated DNA Technology's PrimeTime qPCR primer library (Integrated DNA Technologies, Coralville, Iowa).
Data was imported into GraphPad Prism (GraphPad Software, Inc.; LaJolla, Calif.) for analysis. A nonparametric Kruskal-Wallis analysis of variance by ranks with post hoc […] multiple comparison test was used to determine statistical difference among dose groups. A one sample t-test compared to a theoretical mean of 1.0 fold change was used to determine difference from control for each dose group. A p-value<0.05 was used as a cutoff for statistical significance.

Timp1 = experiment: qPCR of liver RNA: Timp1; assay type: in vivo, Male Sprague-Dawley rats; conditions: across dose groups, vs control
Experimental: as §2
as §3, with “Al! primers were obtained from Integrated DNA Technology's PrimeTime qPCR primer library (Integrated DNA Technologies, Coralville, Iowa).” left out

[4] = test system: 67 genes on the fibrosis gene panel; experiment: Multiplexed fibrosis gene panel (QuantiGene 2.0 Plex / Bioplex) on liver RNA; conditions: liver, 67 genes
[5] = 5-7 days oral administration or intraperitoneal injection, various doses
[6] = Allyl Alcohol 9.7 mg/kg, animals 9-12
[7] = Allyl Alcohol 45 mg/kg, animals 17, 18, 20
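For Cytoplasmic Alteration in this document: Severity grades from None 0% through Minimal Mild Moderate to Marked over 80% tissue affected.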
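For Inflammation in this document: Severity grades from None 0% through Minimal Mild Moderate to Marked over 80% tissue affected.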
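For Vacuolation in this document: Severity grades from None 0% through Minimal Mild Moderate to Marked over 80% tissue affected.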

S=C=Nc1cccc2ccccc12 [1-naphthyl isothiocyanate]
Fibrosis score in the DrugMatrix study (liver [1]; rat, in vivo): scored fibrosis-positive

CC(C)(Oc1ccc(CCNC(=O)c2ccc(Cl)cc2)cc1)C(=O)O [bezafibrate]
Fibrosis score in the DrugMatrix study (liver [1]; [5]): scored fibrosis-positive

COc1ccccc1OCCNCC(O)COc1cccc2[nH]c3ccccc3c12 (stereo not shown) [carvedilol]
Fibrosis score in the DrugMatrix study (liver [1]; [5]): scored fibrosis-positive

CC=CC(=O)N(CC)c1ccccc1C [crotamiton]
Fibrosis score in the DrugMatrix study (liver [1]; [5]): scored fibrosis-positive

C[C@]12CC[C@H]3[C@@H](CCC4=CC(=O)CC[C@@]43C)[C@@H]1CC[C@@H]2O [testosterone]
Fibrosis score in the DrugMatrix study (liver [1]; [5]): scored fibrosis-positive

allyl alcohol
Bile Duct Hyperplasia and Fibroplasia (liver [2]; [6]): 0 | Cytoplasmic Alteration (liver [2]; [6]): 1 | Inflammation (liver [2]; [6]): 0 | Necrosis (liver [2]; [6]): 0 | Vacuolation (liver [2]; [6]): 0 | Vacuolation (liver [2]; Allyl Alcohol 20.9 mg/kg, animals 13-16): 0 | Bile Duct Hyperplasia and Fibroplasia (liver [2]; [7]): 3 | Cytoplasmic Alteration (liver [2]; [7]): 3 and 4 and 2 | Inflammation (liver [2]; [7]): 3 and 2 | Necrosis (liver [2]; [7]): 3 and 4 | Vacuolation (liver [2]; [7]): 0 | Combined histopathological scores as percent of animals with pathology (liver [2]; across dose groups, five days (figure legend)): dose-dependent increase in severe pathology | Fibrosis histopathology in the present study (liver [2]; high doses): associated with fibrosis histopathology | Fibrosis histopathology in the present study (liver [2]; high doses, listed as Allyl alcohol): scored positive for fibrosis | Fibrosis histopathology (liver [2]; low-dose (carbon tetrachloride: all doses)): without fibrosis | Degree of fibrosis (liver [2]; oral gavage five days, across doses): dose-dependent increase in the degree of fibrosis | Histopathology: bile duct hyperplasia, fibrosis, necrosis (liver [2]; oral gavage five days, high doses): caused bile duct hyperplasia comorbid with fibrosis and necrosis | Body weight gain over the five experimental dosing days ([3]; dose groups): increase in body weight gain | Body weight change over the five-day exposure interval ([3]; highest dose(s)): gained less weight over the five-day exposure interval than their low-dose counterparts | Tgfb1 gene expression by qPCR (Tgfb1): showed a dose-dependent increase | Timp1 gene expression by qPCR (Timp1): showed a dose-dependent increase | Fibrosis score in the DrugMatrix study (liver [1]; [5]): scored fibrosis-positive | Hierarchical biclustering of log2 fold-changes in panel gene expression [4]: clustered with the non-fibrogenic chemical-dose groups
